Among the data in PubChem BioAssay (NCI) are GI50 and TGI values, retold here.

Some test systems named below: MDA-MB-435; M14 melanoma; RXF 393 renal; OVCAR-8 ovarian; HOP-92 NSCLC; HS 578T breast; A549 NSCLC; IGROV1 ovarian; SK-MEL-2 melanoma; LOX IMVI melanoma.
Experiment in all cases: NCI-60 cell line screen, 48 h

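In this assay, cells in 96-well plates receive the compound at five concentrations for 48 hours. Endpoints are linearly interpolated between the surrounding concentrations. GI50: concentration for 50% inhibition of growth. TGI is the concentration that stops growth completely.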 Bounds are passed on as bounds.

As for `CN(C)C(=O)Nc1nc2cc(Cl)c(Cl)cc2[nH]1`, the GI50 with MDA-MB-435 is 200 nM; with M14 melanoma it was 603 nM; in the assay on RXF 393 renal, 1630 nM; in the assay with OVCAR-8 ovarian, 2460 nM; in the assay with HOP-92 NSCLC, 16100 nM; in the assay on HS 578T breast it was 1260 nM. In addition, the GI50 in the assay with A549 NSCLC is 704 nM; with IGROV1 ovarian, 1150 nM; with SK-MEL-2 melanoma, 4550 nM; with LOX IMVI melanoma, 1870 nM. The TGI in the assay with MDA-MB-435 was 3850 nM; in the assay with RXF 393 renal it was above 28700 nM; in the assay on OVCAR-8 ovarian, above 60400 nM; in the assay on HOP-92 NSCLC, above 100000 nM; in the assay on HS 578T breast, above 55100 nM; in the assay with A549 NSCLC, above 25400 nM. The results for the TGI with IGROV1 ovarian, in the assay with SK-MEL-2 melanoma and with LOX IMVI melanoma were above 100000 nM, above 49100 nM and above 100000 nM, respectively.
